According to US20120122908A1, “Novel C-4 Substituted Retinoids” (University of Maryland, priority 2000, published 2012):

Tested on: LNCaP cells
Assay: LNCaP cell growth, compound in combination with ATRA
Format: cell-based, human
Conditions: 10^−8 to 10^−5 M in combination with 10^−5 M ATRA, compared with no drug or ATRA only
Procedure: LNCaP cells are androgen-dependent cell cultures. PC-3 cells are androgen independent cell culture.
LNCaP cells are transferred into ATRA-free medium 3 days prior to start of experiments. Medium consist of phenol red-free IMEM supplemented with 5% FBS and 1% P/S. Cell are then plated into 24-well culture plates (15000 cells per well) in 1 mL of same medium. After a 24-hour attachment period, the vehicle (ethanol) or ATRA (10^−5 M) alone or ATRA in combination with a novel compound at a range of concentrations are added to triplicate wells. Medium/treatments are changed every 3 days. After 9 days of treatment, cells are removed from the wells with typsin/EDTA and counted in a Coulter counter. Using well-known methods (Wouters W, Van Dun J, Dillen A, Coene M.-C, Cools W and De Coster R, Effects of liarozole, a new antitumoral compound an retinoic acid-induced inhibition of cell growth and on retinoic acid metabolism in MCF-7 breast cancer cells, Cancer Res 52: 2841-2846, 1992), one determines the inhibitory effect of the novel compounds on LNCaP cells grown with ATRA.

Question: Which “inhibition of proliferation of LNCaP cells” value does the source give for `CC1=C(/C=C/C(C)=C/C=C/C(C)=C/C(=O)O)C(C)(C)CCC1n1ccnc1` (racemic) [VN/14-1, (±)-4-(1H-imidazole-1-yl)retinoic acid] here?
Answer: Its value is “inhibit the proliferation of LNCaP cells better than no drug or ATRA only”.
